Legend:
KCC2-S940A = molecular target: T1, KCC2-S940A (Homo sapiens, UniProt Q9H2X9, S963A); assay: Tl+ flux assay in HEK-293 cells expressing KCC2-S940A; type: cell-based
T1 construct: expressed in transfected cells; host or cells: HEK-293
T1 sequence (Q9H2X9 1-1116 isoform Q9H2X9-2 S940A): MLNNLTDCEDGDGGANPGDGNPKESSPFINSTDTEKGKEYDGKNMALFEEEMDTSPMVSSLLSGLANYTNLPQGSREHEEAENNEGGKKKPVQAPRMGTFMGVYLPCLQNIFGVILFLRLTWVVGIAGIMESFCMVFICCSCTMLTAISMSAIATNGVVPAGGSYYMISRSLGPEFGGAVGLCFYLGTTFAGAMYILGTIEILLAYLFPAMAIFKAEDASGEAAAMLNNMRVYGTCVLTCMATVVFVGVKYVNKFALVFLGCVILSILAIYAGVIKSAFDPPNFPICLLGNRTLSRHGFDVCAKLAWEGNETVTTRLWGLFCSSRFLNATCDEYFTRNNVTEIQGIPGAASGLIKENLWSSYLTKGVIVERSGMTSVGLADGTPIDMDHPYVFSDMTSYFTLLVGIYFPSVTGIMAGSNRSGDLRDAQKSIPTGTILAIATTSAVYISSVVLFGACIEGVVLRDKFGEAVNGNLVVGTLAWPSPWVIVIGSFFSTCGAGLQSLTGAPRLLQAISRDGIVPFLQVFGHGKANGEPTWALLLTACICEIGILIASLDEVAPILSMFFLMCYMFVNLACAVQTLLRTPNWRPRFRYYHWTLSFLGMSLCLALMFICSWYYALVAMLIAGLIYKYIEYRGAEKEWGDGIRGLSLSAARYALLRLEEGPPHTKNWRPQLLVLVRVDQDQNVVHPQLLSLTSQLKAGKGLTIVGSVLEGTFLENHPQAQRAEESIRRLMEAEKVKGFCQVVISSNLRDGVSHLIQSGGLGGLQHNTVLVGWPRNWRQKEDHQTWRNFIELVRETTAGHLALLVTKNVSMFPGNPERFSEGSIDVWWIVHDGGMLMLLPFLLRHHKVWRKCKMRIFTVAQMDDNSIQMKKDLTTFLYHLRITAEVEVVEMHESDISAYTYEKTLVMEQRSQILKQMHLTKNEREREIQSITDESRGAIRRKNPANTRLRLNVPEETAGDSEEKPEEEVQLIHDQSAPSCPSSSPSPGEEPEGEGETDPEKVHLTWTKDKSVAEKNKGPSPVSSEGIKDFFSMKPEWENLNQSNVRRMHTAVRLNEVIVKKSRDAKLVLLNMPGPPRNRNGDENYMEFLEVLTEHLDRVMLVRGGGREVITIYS
Protocol: FLIPR TI Flux assay. HEK-293 cells were washed with HBSS, and then incubated with loading buffer containing TI sensitive fluorescent dye (https://www.moleculardevices.com), 20 μM bumetanide 20 μM ouabain and 2.5 mM probenecid for 1 h at room temperature (RT) under control conditions or with drugs in the dark using a FlexStation 3 microplate reader (Molecular Devices) and imaged […] for 30 min. Stimulus buffer was added containing 5 mM K^+/0.5 mM Tl^+ and cells were imaged every 1.5 over a 190 second time course The initial rate Tl^+ uptake (Relative Fluorescence Units (RFU) per second) was determined following addition of the stimulus buffer as outlined previously (Conway et al., 2017, supra) (Lee et al., 2022, supra).
Several studies have shown that the activity and plasma membrane accumulation of KCC2 is potentiated via phosphorylation of S940, a process mediated by the activity of protein kinase C and protein phosphatase 1 (Lee et al., 2011, supra; Lee et al., J Biol Chem 282, 29777-29784 (2007); Moore et al., Proc. Natl. Acad. Sci. U.S.A 115, 10166-10171 (2018); Moore et al., Trends Neurosci. 40, 555-571 (2017); Silayeva et al., Proc. Natl. Acad. Sci. U.S.A 112, 3523-3528 (2015)). […] Compared to KCC2, effects on KCC3, KCC4, and NKCC1 were only seen at concentrations more than 35-fold that of KCC2 (≥100 μM) (FIG. 1G).

[1] = PK studies: brain and plasma levels by LC-MS/MS; type: in vivo, mice
hippocampus = assay: Neuronal cell death in the hippocampus of mice treated with diazepam; type: in vivo; conditions: Compound A and diazepam, compared to diazepam alone

Compound: C[C@@H]1CN(c2nc3c(c(Nc4ccc(C5CCCCC5)cc4)n2)COC3)CCO1 [Compound A, (R)—N-(4-cyclohexylphenyl)-2-(2-methylmorpholino)-5,7-dihydrofuro[3,4-d]pyrimidin-4-amine]
- activity of KCC2-S940A construct (KCC2-S940A): increased the activity
- time by which accumulation in the brain was evident ([1]; 25 mg/kg IV bolus, mice): ≤ 30 min
- time at which accumulation in brain was detected ([1]; 50 mg/kg SC): 30 min
- time of maximal concentration in brain ([1]; 50 mg/kg SC): 4 h
- neuronal cell death in the hippocampus (hippocampus): significantly reduced
